Source: ChEMBL document CHEMBL3853262 (Medchemcomm, 2016)

Columns and labels:
Assay type in all cases: functional, cell-based
NTERA-2-cl-D1 = assay: Proapoptotic activity in human NT2/D1 cells by annexin V-FITC/propidium iodide staining-based capillary cytometric method
ASPC1 = assay: Proapoptotic activity in human AsPC1 cells by annexin V-FITC/propidium iodide staining-based capillary cytometric method
BXPC-3 = assay: Proapoptotic activity in human BxPC3 cells by annexin V-FITC/propidium iodide staining-based capillary cytometric method
BJ = assay: Proapoptotic activity in human BJ cells by annexin V-FITC/propidium iodide staining-based capillary cytometric method

## Nc1nc(-c2cccc(NC(=O)c3cc4cc(F)ccc4[nH]3)c2)c[nH]1
NTERA-2-cl-D1
  EC50: 13 µM
ASPC1
  EC50: 27 µM
BXPC-3
  EC50: 28 µM
BJ
  EC50: 16 µM
